Experimental data reported in patent publication US5002952A, “Readily absorbed pharmaceutical composition” (priority 1986, dated 1991).

System: L-1210 leukemia cells
Test: Antitumour activities (survival of BDF1 mice inoculated intraperitoneally with L-1210 leukemia cells, oral test drug)
Protocol: To BDF1 mice (male, 20-22 g), L-1210 leukemia cells were intraperitoneally inoculated in an amount of 1×10^6 cells/mouse. One day later and 4 days later, a test drug was orally administered. […] Therefore, in this test, Compound No. 3, and a 10 w/v% HCO60 solution were mixed, and pulverized in a wet system to obtain a liquid suspension, and the liquid suspension was administered to each mouse in an amount of 0.5 ml.
The activity was evaluated by a survival rate [T/C (%)]as compared with a control group to which a physiological saline was administered, and T/C values are shown in Table 2.

O=C(NC(=O)c1ccccc1[N+](=O)[O-])Nc1ccc(Oc2ncc(Br)cn2)c(Cl)c1 [Compound No. 3]
toxicity (T/C) (high dose region, composition wet pulverized with HCO60): less than 100% | antitumour activity (in words) (wet pulverized in the absence of HCO60, same dose): no substantial antitumour activity was observed | antitumour activity (in words) (wet pulverized together with the specific substance (HCO60)): adequate antitumour activity
